According to ChEMBL document CHEMBL1153358, “Amide analogs of antifungal dioxane-triazole derivatives: synthesis and in vitro activities” (Bioorg Med Chem Lett, 2009):
In brackets after ≈: the same amount, converted by molar mass.

What was measured:
Candida albicans [1] = experiment: Antifungal activity against Candida albicans SANK 51486; type: functional
Candida albicans [2] = experiment: Antifungal activity against fluconazole-resistant Candida albicans TIMM3164; type: functional
Nakaseomyces glabratus = experiment: Antifungal activity against Candida glabrata ATCC 90030; type: functional
Candida tropicalis = experiment: Antifungal activity against Candida tropicalis ATCC 750; type: functional
Cryptococcus neoformans = experiment: Antifungal activity against Cryptococcus neoformans TIMM 1855; type: functional
Aspergillus fumigatus [3] = experiment: Antifungal activity against Aspergillus fumigatus SANK 10569; type: functional
Aspergillus flavus = experiment: Antifungal activity against Aspergillus flavus SANK 18497; type: functional
Candida albicans [4] = experiment: Antifungal activity against Candida albicans ATCC 24433; type: functional
Candida albicans [5] = experiment: Antifungal activity against Candida albicans ATCC 64550; type: functional
Candida parapsilosis = experiment: Antifungal activity against Candida parapsilosis ATCC 90018; type: functional; conditions: Lodderomyces parapsilosis
Pichia kudriavzevii = experiment: Antifungal activity against Candida krusei ATCC 6258; type: functional
Aspergillus fumigatus [6] = experiment: Antifungal activity against Aspergillus fumigatus ATCC 26430; type: functional
[7] = Chemical stability assessed as half life in HCl; type: physicochemical
[8] = Bioavailability in rat at 20 mg/kg, po; type: ADME, organism-based; conditions: in vivo

SMILES	MIC (Candida albicans [1]) [µg/mL]	MIC (Candida albicans [2]) [µg/mL]	MIC (Nakaseomyces glabratus) [µg/mL]	MIC (Candida tropicalis) [µg/mL]	MIC (Cryptococcus neoformans) [µg/mL]	MIC (Aspergillus fumigatus [3]) [µg/mL]	MIC (Aspergillus flavus) [µg/mL]	MIC (Candida albicans [4]) [µg/mL]	MIC (Candida albicans [5]) [µg/mL]	MIC (Candida parapsilosis) [µg/mL]	MIC (Pichia kudriavzevii) [µg/mL]	MIC (Aspergillus fumigatus [6]) [µg/mL]	half-life [7] [h]	bioavailability [8] [%]
CC(=O)c1ccc(NC(=O)c2ccc([C@H]3OC[C@H](S[C@H](C)[C@](O)(Cn4cncn4)c4ccc(F)cc4F)CO3)cc2)cc1	≤ 0.008	0.031 (≈ 0.0509 µM)	> 4	0.125 (≈ 0.205 µM)	0.125 (≈ 0.205 µM)	0.063 (≈ 0.104 µM)	0.25 (≈ 0.411 µM)							
C[C@@H](S[C@H]1CO[C@H](c2ccc(C(=O)Nc3ccncc3)cc2)OC1)[C@](O)(Cn1cncn1)c1ccc(F)cc1F	≤ 0.008	0.031 (≈ 0.0546 µM)	> 4	0.125 (≈ 0.22 µM)	0.125 (≈ 0.22 µM)	0.25 (≈ 0.44 µM)	0.25 (≈ 0.44 µM)							
C[C@@H](S[C@H]1CO[C@H](c2ccc(C(=O)Nc3ccc(C#N)cc3)cc2)OC1)[C@](O)(Cn1cncn1)c1ccc(F)cc1F	≤ 0.008	≤ 0.008	2 (≈ 3.38 µM)	0.016 (≈ 0.027 µM)	0.031 (≈ 0.0524 µM)	0.031 (≈ 0.0524 µM)	0.125 (≈ 0.211 µM)	≤ 0.008	0.25 (≈ 0.423 µM)	≤ 0.008	0.063 (≈ 0.106 µM)	0.031 (≈ 0.0524 µM)	2.67	31.7
C[C@@H](S[C@H]1CO[C@H](c2ccc(C(=O)Nc3ccc(SC(F)(F)F)cc3)cc2)OC1)[C@](O)(Cn1cncn1)c1ccc(F)cc1F	≤ 0.008	0.031 (≈ 0.0465 µM)	1 (≈ 1.5 µM)	0.031 (≈ 0.0465 µM)	0.016 (≈ 0.024 µM)	0.25 (≈ 0.375 µM)	0.5 (≈ 0.75 µM)							
OC(Cn1cncn1)(Cn1cncn1)c1ccc(F)cc1F [FLUCONAZOLE]	0.25 (≈ 0.816 µM)	> 4	> 4	2 (≈ 6.53 µM)	> 4	> 4	> 4	0.5 (≈ 1.63 µM)	> 4	0.5 (≈ 1.63 µM)	> 4	> 4		
C[C@@H](S[C@H]1CO[C@H](c2ccc(C(=O)Nc3nccs3)cc2)OC1)[C@](O)(Cn1cncn1)c1ccc(F)cc1F	≤ 0.008	0.031 (≈ 0.054 µM)	2 (≈ 3.49 µM)	0.125 (≈ 0.218 µM)	0.125 (≈ 0.218 µM)	0.063 (≈ 0.11 µM)	0.5 (≈ 0.872 µM)							
C[C@@H](S[C@H]1CO[C@H](c2ccc(C(=O)N3CCOCC3)cc2)OC1)[C@](O)(Cn1cncn1)c1ccc(F)cc1F	0.063 (≈ 0.112 µM)	0.25 (≈ 0.446 µM)	> 4	1 (≈ 1.78 µM)	0.125 (≈ 0.223 µM)	4 (≈ 7.13 µM)	> 4							
C[C@@H](S[C@H]1CO[C@H](c2ccc(C(=O)N3CCSCC3)cc2)OC1)[C@](O)(Cn1cncn1)c1ccc(F)cc1F	0.016 (≈ 0.0277 µM)	0.125 (≈ 0.217 µM)	4 (≈ 6.94 µM)	0.5 (≈ 0.867 µM)	0.031 (≈ 0.0538 µM)	0.5 (≈ 0.867 µM)	4 (≈ 6.94 µM)							
Cc1ccc(NC(=O)c2ccc([C@H]3OC[C@H](S[C@H](C)[C@](O)(Cn4cncn4)c4ccc(F)cc4F)CO3)cc2)cc1	≤ 0.008	0.016 (≈ 0.0276 µM)	2 (≈ 3.44 µM)	≤ 0.008	0.031 (≈ 0.0534 µM)	0.063 (≈ 0.108 µM)	0.25 (≈ 0.431 µM)							
C[C@@H](S[C@H]1CO[C@H](/C=C/C=C/c2ccc(F)cc2)OC1)[C@](O)(Cn1cncn1)c1ccc(F)cc1F	≤ 0.008	0.063 (≈ 0.122 µM)	1 (≈ 1.93 µM)	0.25 (≈ 0.483 µM)	0.016 (≈ 0.0309 µM)	0.063 (≈ 0.122 µM)	0.25 (≈ 0.483 µM)							
C[C@@H](S[C@H]1CO[C@H](c2ccc(C(=O)N3CCN(c4ccccc4)CC3)cc2)OC1)[C@](O)(Cn1cncn1)c1ccc(F)cc1F	0.016 (≈ 0.0252 µM)	0.125 (≈ 0.197 µM)	2 (≈ 3.15 µM)	0.5 (≈ 0.786 µM)	0.016 (≈ 0.0252 µM)	1 (≈ 1.57 µM)	2 (≈ 3.15 µM)							
C[C@@H](S[C@H]1CO[C@H](c2cccc(C(=O)Nc3ccc(C#N)cc3)c2)OC1)[C@](O)(Cn1cncn1)c1ccc(F)cc1F	≤ 0.008	0.25 (≈ 0.423 µM)	2 (≈ 3.38 µM)	1 (≈ 1.69 µM)	1 (≈ 1.69 µM)	2 (≈ 3.38 µM)	> 4							
C[C@@H](S[C@H]1CO[C@H](/C=C/C=C/c2ccc(C#N)cc2F)OC1)[C@](O)(Cn1cncn1)c1ccc(F)cc1F [EMBECONAZOLE]	≤ 0.008	0.063 (≈ 0.116 µM)	1 (≈ 1.84 µM)	0.25 (≈ 0.461 µM)	0.016 (≈ 0.0295 µM)	0.063 (≈ 0.116 µM)	0.25 (≈ 0.461 µM)	0.016 (≈ 0.0295 µM)	0.5 (≈ 0.922 µM)	0.016 (≈ 0.0295 µM)	0.25 (≈ 0.461 µM)	0.063 (≈ 0.116 µM)	0.107	113
C[C@@H](S[C@H]1CO[C@H](c2ccc(C(=O)Nc3ccc(C#N)c(C#N)c3)cc2)OC1)[C@](O)(Cn1cncn1)c1ccc(F)cc1F	≤ 0.008	0.016 (≈ 0.0259 µM)	> 4	0.031 (≈ 0.0503 µM)	0.063 (≈ 0.102 µM)	0.25 (≈ 0.405 µM)	0.5 (≈ 0.811 µM)							
